The target in this assay is T1, MerTK (Homo sapiens, UniProt Q12866).
T1 construct: Seed HUVECs (10K cells/well) in EBM-2 complete media; host or cells: HUVEC (primary human umbilical vein endothelial cells)
T1 sequence (Q12866 21-999): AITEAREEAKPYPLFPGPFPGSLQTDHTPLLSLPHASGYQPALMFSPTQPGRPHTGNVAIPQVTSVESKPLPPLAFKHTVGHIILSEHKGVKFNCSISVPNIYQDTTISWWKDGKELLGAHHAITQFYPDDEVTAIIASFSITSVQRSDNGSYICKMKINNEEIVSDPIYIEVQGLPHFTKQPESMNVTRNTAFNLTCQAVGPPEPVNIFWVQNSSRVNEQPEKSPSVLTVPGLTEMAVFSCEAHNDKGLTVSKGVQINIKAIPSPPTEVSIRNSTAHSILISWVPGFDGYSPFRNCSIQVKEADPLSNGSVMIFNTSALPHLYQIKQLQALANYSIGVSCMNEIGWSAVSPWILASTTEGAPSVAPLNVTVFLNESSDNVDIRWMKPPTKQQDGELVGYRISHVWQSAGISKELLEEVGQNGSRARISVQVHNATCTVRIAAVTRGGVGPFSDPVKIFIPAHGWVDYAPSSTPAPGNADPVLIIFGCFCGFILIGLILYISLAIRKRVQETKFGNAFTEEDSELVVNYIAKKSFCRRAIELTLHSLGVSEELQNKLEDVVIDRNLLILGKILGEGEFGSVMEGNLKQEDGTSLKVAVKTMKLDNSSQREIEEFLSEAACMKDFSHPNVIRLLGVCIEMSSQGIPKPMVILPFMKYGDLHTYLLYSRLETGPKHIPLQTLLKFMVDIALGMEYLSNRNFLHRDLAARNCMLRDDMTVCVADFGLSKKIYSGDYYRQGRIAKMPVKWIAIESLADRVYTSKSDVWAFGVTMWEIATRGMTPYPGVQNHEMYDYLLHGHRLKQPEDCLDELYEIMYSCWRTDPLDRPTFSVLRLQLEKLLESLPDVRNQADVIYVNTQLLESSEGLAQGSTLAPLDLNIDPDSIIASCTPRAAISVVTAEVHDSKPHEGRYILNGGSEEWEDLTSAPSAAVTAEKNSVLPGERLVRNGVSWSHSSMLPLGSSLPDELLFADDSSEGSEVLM
Briefly: PAKT HTRF-HUVEC assay (pAkt Ser473 HTRF after anti-human MerTK-XL stimulation). Type of assay: cell-based. The settings on record: HUVEC cells, 1 hour compound, stimulated with anti-human MerTK-XL 1 ug/mL for 10 minutes, read-out: inhibition of MerTK. The protocol: Example 4: PAKT HTRF-HUVEC Assay Phospho Akt (Ser473) Assay kit-10,000 tests (Cisbio US, 64[…]) HUVEC cells (Lonza, CC-2519) Anti-human MerTK antibody (Clone 125518) (R&D Systems, MAB8912) Method Seed HUVECs (10K cells/well) in EBM-2 complete media (EBM-2 basal medium plus EGM-2 BulletKit supplements) overnight at 37° C., 5% CO2 in Costar 96-well white clear-bottom plates. Remove culture media and starve cells for 3-4 hours in 50 μL/well EBM-2 basal medium. Perform serial dilution of compounds in DMSO from 2.5 mM in 4-fold dilutions, and then dilute 1:125 in EBM-2 basal media. Mix 50 μL/well 2x compounds with 50 μL/well HUVECs in duplicate in Costar 96-well white clear-bottom plates. Incubate plates for 1 hour at 37° C., 5% CO2. Cross-link anti-human MerTK antibody to Biotin-SP-conjugated anti-mouse IgG antibody (1:1) to give final concentrations of 5 ug/mL of anti-human MerTK-XL. Stimulate HUVECs with 25 μL/well 5x anti-human MerTK-XL to give final concentrations of 1 ug/mL for 10 minutes at 37° C., 5% CO2. Completely remove media and lyse HUVECs with 40 uL/WELL per well of Cisbio HTRF 1× lysis buffer. Performed pAkt(Ser473) HTRF assay in ProxiPlate-384 Plus, white 384-shallow well microplate according to the vendor protocol and read plates with a SpectralMax Paradigm plate reader. Enter the HTRF values into Athena (Rigel) for curve fitting, EC50 calculation, and database storage.
Background: In TR-FRET formats the signal depends on donor and acceptor labels being close together.
`O=c1c2cc(CN3CC[N@+]4([O-])CC[C@@H]3CC4)ccc2c2cnc(NCC3CC3)nc2n1C1CCC(O)CC1` (relative stereo) [Compound 51, trans-4-((3-((Cyclopropylmethyl)amino)-5-(4-hydroxycyclohexyl)-6-oxo-5,6-dihydropyrimido[4,5-c]isoquinolin-8-yl)methyl)-1,4-diazabicyclo[3.2.2]nonane 1-oxide]: the EC50 is 11900 nM.

Take `CCC(F)(F)CNc1ncc2c3ccc(CN4CCOCC4)cc3c(=O)n([C@H]3CC[C@H](O)CC3)c2n1` [Compound 1, trans-3-((2,2-Difluorobutyl)amino)-5-(4-hydroxycyclohexyl)-8-(morpholinomethyl)pyrimido [4,5-c]isoquinolin-6(5H)-one]: the EC50 came out at 247 nM.

With `CCCCNc1ncc2c3ccc(CN4CCOCC4)cc3c(=O)n([C@H]3CC[C@H](O)CC3)c2n1` [Compound 2, trans-3-(Butylamino)-5-(4-hydroxycyclohexyl)-8-(morpholinomethyl)pyrimido [4,5-c]isoquinolin-6(5H)-one], the EC50 came to 44.2 nM.

As to `CCCCNc1ncc2c3ccc(CN4CCN(C)CC4)cc3c(=O)n([C@H]3CC[C@H](O)CC3)c2n1` [Compound 3, trans-3-(Butylamino)-5-(4-hydroxycyclohexyl)-8-((4-methylpiperazin-1-yl)methyl)pyrimido[4,5-c]isoquinolin-6(5H)-one], the EC50 was 28.8 nM.

In the case of `CCCCNc1ncc2c3ccc(CN4CCOCC4)cc3c(=O)n([C@H]3CC[C@@H](O)CC3)c2n1` [Compound 4, cis-3-(Butylamino)-5-(4-hydroxycyclohexyl)-8-(morpholinomethyl)pyrimido [4,5-c]isoquinolin-6(5H)-one], the EC50 stood at 174 nM.

Consider `CCCCNc1ncc2c3ccc(CN4CCN(C)CC4)cc3c(=O)n([C@H]3CC[C@@H](O)CC3)c2n1` [Compound 5, cis-3-(Butylamino)-5-(4-hydroxycyclohexyl)-8-((4-methylpiperazin-1-yl)methyl)pyrimido[4,5-c]isoquinolin-6(5H)-one], for which the EC50 was determined as 98 nM.

As for `CCCCNc1ncc2c3ccc(CN4CCN(C)CC4)cc3c(=O)n(CC3CCC(O)CC3)c2n1` (stereo not shown) [Compound 6, 3-(Butylamino)-5-((4-hydroxycyclohexyl)methyl)-8-((4-methylpiperazin-1-yl)methyl)pyrimido[4,5-c]isoquinolin-6(5H)-one], the EC50 stood at 2040 nM.

With `CCCCNc1ncc2c3ccc(CN4CCOCC4)cc3c(=O)n(CC3CCC(N)CC3)c2n1` (stereo not shown) [Compound 9, 5-((4-Aminocyclohexyl)methyl)-3-(butylamino)-8-(morpholinomethyl)pyrimido [4,5-c]isoquinolin-6(5H)-one], the EC50 amounted to 116 nM.

For the molecule `CCCCNc1ncc2c3ccc(CN4CCN(C)CC4)cc3c(=O)n(CC3CCC(N)CC3)c2n1` (stereo not shown) [Compound 10, 5-((4-Aminocyclohexyl)methyl)-3-(butylamino)-8-((4-methylpiperazin-1-yl)methyl)pyrimido[4,5-c]isoquinolin-6(5H)-one], the EC50 amounted to 146 nM.

For the molecule `CN1CCN(Cc2ccc3c(c2)c(=O)n([C@H]2CC[C@H](O)CC2)c2nc(NC4CC(F)(F)C4)ncc32)CC1` [Compound 12, trans-3-((3,3-Difluorocyclobutyl)amino)-5-(4-hydroxycyclohexyl)-8-((4-methylpiperazin-1-yl)methyl)pyrimido[4,5-c]isoquinolin-6(5H)-one], the EC50 came to 116 nM.

Take `CN1CCN(Cc2ccc3c(c2)c(=O)n([C@H]2CC[C@H](O)CC2)c2nc(NC4CC(F)C4)ncc32)CC1` (stereo partly drawn) [Compound 13, trans-3-((3-Fluorocyclobutyl)amino)-5-(4-hydroxycyclohexyl)-8-((4-methylpiperazin-1-yl)methyl)pyrimido[4,5-c]isoquinolin-6(5H)-one]: the EC50 was determined as 144 nM.

As to `CCCCNc1ncc2c3ccc(CN4CCN(C)CC4)cc3c(=O)n(C3CC4(CC(O)C4)C3)c2n1` (stereo not shown) [Compound 14, 3-(Butylamino)-5-(6-hydroxyspiro[3.3]heptan-2-yl)-8-((4-methylpiperazin-1-yl)methyl)pyrimido[4,5-c]isoquinolin-6(5H)-one], the EC50 worked out at 56.4 nM.

As for `CCCCNc1ncc2c3ccc(CN4CCN(C)CC4)cc3c(=O)n(C3CCC(C)(O)CC3)c2n1` (stereo not drawn) [Compound 15, trans-3-(Butylamino)-5-(4-hydroxy-4-methylcyclohexyl)-8-((4-methylpiperazin-1-yl)methyl)pyrimido[4,5-c]isoquinolin-6(5H)-one], the EC50 worked out at 5.9 nM.

As for `CN1CCN(Cc2ccc3c(c2)c(=O)n([C@H]2CC[C@H](O)CC2)c2nc(NCC4CC4)ncc32)CC1` [Compound 16, trans-3-((Cyclopropylmethyl)amino)-5-(4-hydroxycyclohexyl)-8-((4-methylpiperazin-1-yl)methyl)pyrimido[4,5-c]isoquinolin-6(5H)-one], the EC50 was 63.9 nM.

`CCCCNc1ncc2c3ccc(CN4CCN(C)CC4)cc3c(=O)n([C@H]3CC[C@@](C)(O)CC3)c2n1` [Compound 17, cis-3-(Butylamino)-5-(4-hydroxy-4-methylcyclohexyl)-8-((4-methylpiperazin-1-yl)methyl)pyrimido[4,5-c]isoquinolin-6(5H)-one]: the EC50 was 68 nM.

Take `CCC1(CNc2ncc3c4ccc(CN5CCN(C)CC5)cc4c(=O)n([C@H]4CC[C@H](O)CC4)c3n2)CCC1` [Compound 18, trans-3-(((1-Ethylcyclobutyl)methyl)amino)-5-(4-hydroxycyclohexyl)-8-((4-methylpiperazin-1-yl)methyl)pyrimido[4,5-c]isoquinolin-6(5H)-one]: the EC50 came out at 277 nM.

Take `CCC1(CNc2ncc3c4ccc(CN5CCOCC5)cc4c(=O)n([C@H]4CC[C@H](O)CC4)c3n2)CCC1` [Compound 19, trans-3-(((1-Ethylcyclobutyl)methyl)amino)-5-(4-hydroxycyclohexyl)-8-(morpholinomethyl)pyrimido [4,5-c]isoquinolin-6(5H)-one]: the EC50 turned out to be 697 nM.

As for `O=c1c2cc(CN3CCOCC3)ccc2c2cnc(NCC3CCC3)nc2n1[C@H]1CC[C@H](O)CC1` [Compound 21, trans-3-((Cyclobutylmethyl)amino)-5-(4-hydroxycyclohexyl)-8-(morpholinomethyl)pyrimido [4,5-c]isoquinolin-6(5H)-one], the EC50 was 30.7 nM.

In the case of `CCC1(CNc2ncc3c4ccc(CN5CCN(C)CC5)cc4c(=O)n([C@H]4CC[C@H](O)CC4)c3n2)CC1` [Compound 22, trans-3-(((1-Ethylcyclopropyl)methyl)amino)-5-(4-hydroxycyclohexyl)-8-((4-methylpiperazin-1-yl)methyl)pyrimido[4,5-c]isoquinolin-6(5H)-one], the EC50 came out at 589 nM.

For the molecule `CCC1(CNc2ncc3c4ccc(CN5CCOCC5)cc4c(=O)n([C@H]4CC[C@H](O)CC4)c3n2)CC1` [Compound 23], the EC50 turned out to be 1180 nM.

On to `CCC(F)(F)CNc1ncc2c3ccc(CN4CCN(C)CC4)cc3c(=O)n([C@H]3CC[C@H](O)CC3)c2n1` [Compound 24, trans-3-((2,2-Difluorobutyl)amino)-5-(4-hydroxycyclohexyl)-8-((4-methylpiperazin-1-yl)methyl)pyrimido[4,5-c]isoquinolin-6(5H)-one], for which the EC50 turned out to be 221 nM.

Regarding `CN1CCN(Cc2ccc3c(c2)c(=O)n([C@H]2CC[C@H](O)CC2)c2nc(NCCCC(F)(F)F)ncc32)CC1` [Compound 25, trans-5-(4-hydroxycyclohexyl)-8-((4-methylpiperazin-1-yl)methyl)-3-((4,4,4-trifluorobutyl)amino)pyrimido [4,5-c]isoquinolin-6(5H)-one], the EC50 worked out at 1680 nM.

These data come from US11110082B2, “Tyrosine kinase inhibitors” (Rigel Pharmaceuticals, Inc., priority 2016, dated 2021).
